# Data published in PubChem BioAssay AID2060510 (Molecular Pharmacology Branch, DTP, NCI, 2025).
# pIC50: −log10 of the molar value. Several values for one entry are separate records, joined by “and”; a condition that tells them apart may be missing. Equal entries are not always repeated.
# Test system: 439559-082-T-J2-PDC spheroids viability
# Experiment: Anticancer human tumor 439559-082-T-J2-PDC patient-derived colon adenocarcinoma cell line growth inhibition [GQUAD]
# Conditions: for viability, T/C: stronger effect = lower value
# Source text: DNA G-quadruplex Stabilizer Agents in Combinations in Complex Spheroids
# A high-throughput screen of multi-cell type tumor spheroids was designed to identify active combinations of DNA G-quadruplex stabilizer agents and targeted small molecules. Complex spheroids include a stromal component modeled by human endothelial cells (HUVEC) and fibroblasts modeled by human mesenchymal stem cells (MSCs). The concentration ranges selected for each drug and investigational agent were based upon clinically achievable concentrations if the clinical Cmax of the agent was known.
# Compounds. The drugs and investigational agents: pidnarulex (CX-5461; NSC782164), APTO-253 (NSC789042), BRACO-19 (NSC847499), peposertib (NSC802822), ceralasertib (NSC780249), elimusertib (NSC800525), camonsertib (NSC841442), AZD-1390 (NSC803789), olaparib (NSC753686), talazoparib (NSC767125), ART-558 (NSC835418), sotorasib (NSC818433), MRTX-1133 (NSC836407), SN-38 (NSC673596), topotecan (NSC609699), etoposide (NSC141540), doxorubicin (NSC123127), gemcitabine (NSC613327), 5-fluorouracil (NSC19893), paclitaxel (NSC125973), vemurafenib (NSC761431), panobinostat (NSC761190), R-306465 (JNJ-16241199; NSC773264), adavosertib (NSC754352), TP-3654 (NSC805149), carboplatin (NSC241240), KSQ-4279 (NSC840948), and staurosporine (NSC755774) were obtained from the National Cancer Institute (NCI) Developmental Therapeutics Program Chemical Repository (34). The FDA-approved anticancer drug set is available from the NCI Developmental Therapeutics Program. […] The stock solutions were prepared in dimethyl sulfoxide (DMSO, Sigma-Aldrich, St. Louis, MO, cat. D2650) at 800-fold the tested concentration and stored at -70 degrees C prior to their use. All drugs and investigational agents were tested over a range starting from a high concentration at or near the clinical Cmax and decreasing in half-log increments. If the clinical Cmax for an agent had not been determined, the highest concentration tested was 10 microM.
# 2.3 Cell Culture. All cells were maintained in an incubator at 37 degrees C and 5% CO2 with 95% humidity. The PDC lines were cultured according to standard operating procedures established by the NCI PDMR. All PDCs were thawed and cultured in Matrigel-coated flasks prepared with a working solution of 1X Ham's F-12 nutrient mix, without supplementation (Invitrogen, cat. 11765054), 100 U/mL penicillin-streptomycin (Invitrogen, cat. 15140122), and 2.5% Matrigel (Corning Inc., cat. 354248) for the first three passages. The 857933-349-R-J2-PDC line was cultured in 6C/Colon 1B media, which includes advanced DMEM/F-12 (Thermo Fisher Scientific, cat. 12634028), 10 mM HEPES (Thermo Fisher Scientific, cat. 15630080), 1X GlutaMAX supplement (Thermo Fisher Scientific, cat. 35050061), 0.1 mg/mL primocin (InvivoGen, cat. ant-pm-2), 10% defined fetal bovine serum, heat inactivated (HyClone Laboratories Inc., cat. SH30070.03HI), 50% L-WRN conditioned media (ATCC, cat. CRL-3276), 1.25 mM N-Acetyl-L-cysteine (Sigma-Aldrich, cat. A9165), 10 mM nicotinamide (Sigma-Aldrich, cat. N0636), 1X B-27 supplement (Thermo Fisher Scientific, cat. 17504044), 1X N-2 supplement (Thermo Fisher Scientific, cat. 17502048), 10 microM Y-27632 dihydrochloride (Tocris Bioscience, cat. 1254), and 50 ng/mL human EGF recombinant protein (Thermo Fisher Scientific, cat. PHG0311). The 485176-168-R4-J1-PDC line was cultured in Panc media, which includes all 6C/Colon 1B media components plus 100 ng/mL human FGF-10 (Thermo Fisher Scientific, cat. 100-26), 500 nM SB-431542 (Selleckchem, cat. S1067), and gastrin (Tocris, cat. 3006).
# […]
# [1] = curve of first compound, second compound 0.0316 µM
# [2] = curve of first compound, second compound 0.1 µM
# [3] = curve of first compound, second compound 0.316 µM
# [4] = curve of first compound, second compound 1 µM
# [5] = curve of first compound, second compound 3.16 µM
# [6] = curve of first compound, second compound 10 µM
# [7] = second compound 0.0316 µM, first compound 0.0316 µM
# [8] = second compound 0.0316 µM, first compound 0.1 µM
# [9] = second compound 0.0316 µM, first compound 0.316 µM
# [10] = second compound 0.0316 µM, first compound 1 µM
# [11] = second compound 0.0316 µM, first compound 3.16 µM
# [12] = second compound 0.0316 µM, first compound 10 µM
# [13] = second compound 0.1 µM, first compound 0.0316 µM
# [14] = second compound 0.1 µM, first compound 0.1 µM
# [15] = second compound 0.1 µM, first compound 0.316 µM
# [16] = second compound 0.1 µM, first compound 1 µM
# [17] = second compound 0.1 µM, first compound 3.16 µM
# [18] = second compound 0.1 µM, first compound 10 µM
# [19] = second compound 0.316 µM, first compound 0.0316 µM
# [20] = second compound 0.316 µM, first compound 0.1 µM
# [21] = second compound 0.316 µM, first compound 0.316 µM
# [22] = second compound 0.316 µM, first compound 1 µM
# [23] = second compound 0.316 µM, first compound 3.16 µM
# [24] = second compound 0.316 µM, first compound 10 µM
# [25] = second compound 1 µM, first compound 0.0316 µM
# [26] = second compound 1 µM, first compound 0.1 µM
# [27] = second compound 1 µM, first compound 0.316 µM
# [28] = second compound 1 µM, first compound 1 µM
# [29] = second compound 1 µM, first compound 3.16 µM
# [30] = second compound 1 µM, first compound 10 µM
# [31] = second compound 3.16 µM, first compound 0.0316 µM
# [32] = second compound 3.16 µM, first compound 0.1 µM
# [33] = second compound 3.16 µM, first compound 0.316 µM
# [34] = second compound 3.16 µM, first compound 1 µM
# [35] = second compound 3.16 µM, first compound 3.16 µM
# [36] = second compound 3.16 µM, first compound 10 µM
# [37] = second compound 10 µM, first compound 0.0316 µM
# [38] = second compound 10 µM, first compound 0.1 µM
# [39] = second compound 10 µM, first compound 0.316 µM
# [40] = second compound 10 µM, first compound 1 µM
# [41] = second compound 10 µM, first compound 3.16 µM
# [42] = second compound 10 µM, first compound 10 µM
# 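Further: spheroids exposed to the agents for 7 days before readout.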
# 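Wherever viability, T/C is given: percent of luminescence signal in DMSO vehicle wells taken as 100% viability.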
compound,measurement,setting,value
CC(=O)O[C@H]1C(=O)[C@@]2(C)[C@H]([C@H](OC(=O)c3ccccc3)[C@]3(O)C[C@H](OC(=O)[C@H](O)[C@@H](NC(=O)c4ccccc4)c4ccccc4)C(C)=C1C3(C)C)[C@]1(OC(C)=O)CO[C@@H]1C[C@@H]2O,"viability, T/C",compound 0.0316 µM,97.3% and 78.7% and 84.1%
same,"viability, T/C",compound 0.1 µM,75.3% (2×) and 83.1%
same,"viability, T/C",compound 0.316 µM,55.6% and 69.5% and 90.7%
same,pIC50,curve of compound,6.48 and 5.66 and 5.60
C=CCn1c(=O)c2cnc(Nc3ccc(N4CCN(C)CC4)cc3)nc2n1-c1cccc(C(C)(C)O)n1 + CN(C)c1ccc(Nc2c3ccc(NC(=O)CCN4CCCC4)cc3nc3cc(NC(=O)CCN4CCCC4)ccc23)cc1,pIC50,[1],5.33
same,pIC50,[2],5.47
same,pIC50,[3],5.40
same,pIC50,[4],5.45
same,pIC50,[5],5.39
same,pIC50,[6],5.47
same,"viability, T/C",[7],95%
same,"viability, T/C",[8],89.5%
same,"viability, T/C",[9],85.1%
same,"viability, T/C",[10],82.1%
same,"viability, T/C",[11],63.3%
same,"viability, T/C",[12],24.8%
same,"viability, T/C",[13],94.7%
same,"viability, T/C",[14],97.9%
same,"viability, T/C",[15],85%
same,"viability, T/C",[16],69.4%
same,"viability, T/C",[17],54.4%
same,"viability, T/C",[18],20.9%
same,"viability, T/C",[19],99.3%
same,"viability, T/C",[20],101%
same,"viability, T/C",[21],82.7%
same,"viability, T/C",[22],81%
same,"viability, T/C",[23],55.7%
same,"viability, T/C",[24],24.5%
same,"viability, T/C",[25],101%
same,"viability, T/C",[26],96.7%
same,"viability, T/C",[27],88.6%
same,"viability, T/C",[28],74.9%
same,"viability, T/C",[29],54.5%
same,"viability, T/C",[30],18.2%
same,"viability, T/C",[31],96.2%
same,"viability, T/C",[32],97.8%
same,"viability, T/C",[33],93.9%
same,"viability, T/C",[34],89.3%
same,"viability, T/C",[35],58.5%
same,"viability, T/C",[36],18.2%
same,"viability, T/C",[37],94.3%
same,"viability, T/C",[38],90.9%
same,"viability, T/C",[39],78.2%
same,"viability, T/C",[40],76.2%
same,"viability, T/C",[41],53.1%
same,"viability, T/C",[42],13.3%
Cc1[nH]c2ccccc2c1CCNCc1ccc(/C=C/C(=O)NO)cc1,"viability, T/C",compound 0.000999 µM,105% and 91.6% and 99.8%
same,"viability, T/C",compound 0.00316 µM,94.6% and 105% and 93.3%
same,"viability, T/C",compound 0.00999 µM,91.2% and 92.3% and 95.4%
same,"viability, T/C",compound 0.0316 µM,112% and 84.7% and 91.9%
same,"viability, T/C",compound 0.0999 µM,110% and 81.7% and 79%
same,"viability, T/C",compound 0.316 µM,101% and 63.2% and 61.6%
same,pIC50,curve of compound,< 6.50
Cc1cnc(CNC(=O)c2c(=O)c3ccc(N4CCCN(C)CC4)nc3n3c2sc2ccccc23)cn1,"viability, T/C",compound 0.0316 µM,98.7% [middle of 12 runs]
same,"viability, T/C",compound 0.1 µM,93% [middle of 12 runs]
same,"viability, T/C",compound 0.316 µM,88.6% [middle of 12 runs]
same,"viability, T/C",compound 1 µM,81.6% [middle of 12 runs]
same,"viability, T/C",compound 3.16 µM,75.7% [middle of 12 runs]
same,"viability, T/C",compound 10 µM,75.7% [middle of 12 runs]
same,pIC50,"compound alone, run of 04/16/2024",< 5.00
O=C(c1cc(Cc2n[nH]c(=O)c3ccccc23)ccc1F)N1CCN(C(=O)C2CC2)CC1 + Cc1cnc(CNC(=O)c2c(=O)c3ccc(N4CCCN(C)CC4)nc3n3c2sc2ccccc23)cn1,pIC50,[1],< 5.00
same,pIC50,[2],< 5.00
same,pIC50,[3],< 5.00
same,pIC50,[4],< 5.00
same,pIC50,[5],< 5.00
same,pIC50,[6],< 5.00
same,"viability, T/C",[7],94%
same,"viability, T/C",[8],99.1%
same,"viability, T/C",[9],97.3%
same,"viability, T/C",[10],94%
same,"viability, T/C",[11],96.8%
same,"viability, T/C",[12],98.2%
same,"viability, T/C",[13],97%
same,"viability, T/C",[14],87.7%
same,"viability, T/C",[15],88.4%
same,"viability, T/C",[16],89.5%
same,"viability, T/C",[17],101%
same,"viability, T/C",[18],91.9%
same,"viability, T/C",[19],90.6%
same,"viability, T/C",[20],93.2%
same,"viability, T/C",[21],84.1%
same,"viability, T/C",[22],85.5%
same,"viability, T/C",[23],85.7%
same,"viability, T/C",[24],78.8%
same,"viability, T/C",[25],82.8%
same,"viability, T/C",[26],75%
same,"viability, T/C",[27],72.5%
same,"viability, T/C",[28],73.1%
same,"viability, T/C",[29],89.7%
same,"viability, T/C",[30],81.7%
same,"viability, T/C",[31],75.5%
same,"viability, T/C",[32],62.9%
same,"viability, T/C",[33],68.8%
same,"viability, T/C",[34],73.8%
same,"viability, T/C",[35],74.9%
same,"viability, T/C",[36],68.5%
same,"viability, T/C",[37],68.3%
same,"viability, T/C",[38],71.4%
same,"viability, T/C",[39],69%
same,"viability, T/C",[40],68.8%
same,"viability, T/C",[41],71.9%
same,"viability, T/C",[42],61.8%
